Key:
bamyardgrass = assay: Test B flood test barnyardgrass; type: in vivo, Echinochloa crus-galli
Outline: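 Flood test on plants grown to the 2-leaf stage; treated plants kept in greenhouse twelve to sixteen days, then visually rated against controls on a 0 (no effect) to 10 (complete control) scale.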

sugar beet = assay: Test B pre/postemergence sugar beet; type: in vivo, Beta vulgaris
Outline: (§1)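 Response is a visual 0-to-10 score relative to untreated plants, where 0 means no effect and 10 means complete control, taken twelve to sixteen days after application. Treatments went onto soil at planting and onto foliage of 1- to 4-leaf plants, using a surfactant-containing non-phytotoxic solvent.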

pigweed = assay: Test B pre/postemergence pigweed; type: in vivo, Amaranthus retroflexus
Outline: as §1

cocklebur = assay: Test B pre/postemergence cocklebur; type: in vivo, Xanthium strumarium
Outline: as §1

[1] = Postemergence, Rate 62 g/ha, scale 0 to 10, 0 is no effect, 10 is complete control
[2] = Rate 125 g/ha, Postemergence section (flood test species), scale 0 to 10, 0 no effect, 10 complete control
[3] = Rate 500 g/ha, listed under Postemergence (flood test species), scale 0 to 10, 0 no effect, 10 complete control
[4] = flood test, listed under Postemergence, Rate 250 g/ha, scale 0 to 10, 0 no effect, 10 complete control
[5] = Postemergence, Rate 250 g/ha, scale 0 to 10, 0 no effect, 10 complete control
[6] = Preemergence, Rate 62 g/ha, scale 0 to 10 (0 no effect, 10 complete control)
[7] = Preemergence, Rate 125 g/ha, scale 0 to 10 (0 no effect, 10 complete control)
[8] = Preemergence, Rate 250 g/ha, scale of 0 to 10 where 0 is no effect and 10 is complete control
[9] = Preemergence, Rate 500 g/ha, scale 0 (no effect) to 10 (complete control)
[10] = Rate 125 g/ha, Postemergence, scale 0 to 10, 0 no effect, 10 complete control
[11] = Rate 500 g/ha, Postemergence, scale 0 to 10, 0 no effect, 10 complete control

Q: Which results are given for COc1cccc(C)c1-n1c(=O)on(C(=O)N(c2ccc(F)cc2)C(C)C)c1=O [Compound 62]?
A: Barnyardgrass plant response rating (bamyardgrass; [1]): 0; Barnyardgrass plant response rating (bamyardgrass; [2]): 0; Barnyardgrass plant response rating (bamyardgrass; [3]): 0; Barnyardgrass plant response rating (bamyardgrass; [4]): 0; Sugarbeets plant response rating (sugar beet; [1]): 0; Sugarbeets plant response rating (sugar beet; [5]): 0; Sugarbeets plant response rating (sugar beet; [6]): 0; Plant response rating, Sugarbeets (sugar beet; [7]): 0; Plant response rating, Sugarbeets (sugar beet; [8]): 0; Sugarbeets plant response rating (sugar beet; [9]): 0; Sugarbeets plant response rating (sugar beet; [10]): 0; Sugarbeets plant response rating (sugar beet; [11]): 5; Redroot pigweed plant response rating (pigweed; [1]): 0; Redroot pigweed plant response rating (pigweed; [5]): 0; Redroot pigweed plant response rating (pigweed; [6]): 0; Plant response rating, Redroot pigweed (pigweed; [7]): 0; Plant response rating, Redroot pigweed (pigweed; [8]): 0; Redroot pigweed plant response rating (pigweed; [9]): 0; Redroot pigweed plant response rating (pigweed; [10]): 0; Redroot pigweed plant response rating (pigweed; [11]): 0; Cocklebur plant response rating (cocklebur; [1]): 0; Cocklebur plant response rating (cocklebur; [5]): 6; Cocklebur plant response rating (cocklebur; [6]): 0; Plant response rating, Cocklebur (cocklebur; [8]): 0; Cocklebur plant response rating (cocklebur; [9]): 5; Cocklebur plant response rating (cocklebur; [10]): 4; Cocklebur plant response rating (cocklebur; [11]): 6

Q: What does the source list for CCN(Cc1ccccc1)C(=O)n1oc(=O)n(-c2ccccc2C)c1=O [Compound 71]?
A: Barnyardgrass plant response rating (bamyardgrass; Rate 62 g/ha, headed Pre-emergence (flood test species), scale 0 to 10 (0 no effect, 10 complete control)): 0; Barnyardgrass plant response rating (bamyardgrass; Rate 125 g/ha, Pre-emergence, flood test species, scale 0 to 10 where 0 is no effect and 10 is complete control): 0; Barnyardgrass plant response rating (bamyardgrass; Rate 250 g/ha, headed Pre-emergence (flood test species), scale 0 to 10 (0 no effect, 10 complete control)): 0; Plant response rating, Barnyardgrass (bamyardgrass; Rate 500 g/ha, headed Pre-emergence (flood test species), scale 0 to 10 (0 no effect, 10 complete control)): 0; Sugarbeets plant response rating (sugar beet; [1]): 0; Sugarbeets plant response rating (sugar beet; [5]): 0; Sugarbeets plant response rating (sugar beet; [6]): 0; Plant response rating, Sugarbeets (sugar beet; [7]): 0; Plant response rating, Sugarbeets (sugar beet; [8]): 0; Sugarbeets plant response rating (sugar beet; [9]): 0; Sugarbeets plant response rating (sugar beet; [10]): 0; Sugarbeets plant response rating (sugar beet; [11]): 0; Redroot pigweed plant response rating (pigweed; [1]): 0; Redroot pigweed plant response rating (pigweed; [5]): 0; Redroot pigweed plant response rating (pigweed; [6]): 0; Plant response rating, Redroot pigweed (pigweed; [7]): 0; Plant response rating, Redroot pigweed (pigweed; [8]): 0; Redroot pigweed plant response rating (pigweed; [9]): 0; Redroot pigweed plant response rating (pigweed; [10]): 0; Redroot pigweed plant response rating (pigweed; [11]): 0; Cocklebur plant response rating (cocklebur; [1]): 0; Cocklebur plant response rating (cocklebur; [5]): 0; Cocklebur plant response rating (cocklebur; [6]): 0; Plant response rating, Cocklebur (cocklebur; [7]): 0; Plant response rating, Cocklebur (cocklebur; [8]): 0; Cocklebur plant response rating (cocklebur; [9]): 0; Cocklebur plant response rating (cocklebur; [10]): 0; Cocklebur plant response rating (cocklebur; [11]): 0

Q: For COc1cccc(C)c1-n1c(=O)on(C(=O)N(c2ccccc2)C(C)C)c1=O [Compound 73], which “Barnyardgrass plant response rating” value (bamyardgrass; [1]) is on record?
A: 0

Q: And the “Barnyardgrass plant response rating” value (bamyardgrass; [2])?
A: 0

Q: And the “Barnyardgrass plant response rating” value (bamyardgrass; [3])?
A: 0

Q: What about the “Barnyardgrass plant response rating” value (bamyardgrass; [4]) of the same molecule?
A: 0

Q: What about the “Sugarbeets plant response rating” value (sugar beet; [1]) of the same molecule?
A: 0

Q: And the “Sugarbeets plant response rating” value (sugar beet; [5])?
A: 0

Q: And the “Sugarbeets plant response rating” value (sugar beet; [6])?
A: 0

Q: What about the “Plant response rating, Sugarbeets” value (sugar beet; [7]) of the same molecule?
A: 0

Q: And the “Plant response rating, Sugarbeets” value (sugar beet; [8])?
A: 0

Q: What about the “Sugarbeets plant response rating” value (sugar beet; [9]) of the same molecule?
A: 0

Q: What about the “Sugarbeets plant response rating” value (sugar beet; [10]) of the same molecule?
A: 0

Q: And the “Sugarbeets plant response rating” value (sugar beet; [11])?
A: 0

Q: What about the “Redroot pigweed plant response rating” value (pigweed; [1]) of the same molecule?
A: 0

Q: And the “Redroot pigweed plant response rating” value (pigweed; [5])?
A: 0

Q: And the “Redroot pigweed plant response rating” value (pigweed; [6])?
A: 0

Q: And the “Plant response rating, Redroot pigweed” value (pigweed; [7])?
A: 0

Q: And the “Plant response rating, Redroot pigweed” value (pigweed; [8])?
A: 0

Q: What about the “Redroot pigweed plant response rating” value (pigweed; [9]) of the same molecule?
A: 0

Q: What about the “Redroot pigweed plant response rating” value (pigweed; [10]) of the same molecule?
A: 0

Q: And the “Redroot pigweed plant response rating” value (pigweed; [11])?
A: 0

Q: And the “Cocklebur plant response rating” value (cocklebur; [1])?
A: 0

Q: What about the “Cocklebur plant response rating” value (cocklebur; [5]) of the same molecule?
A: 0

Q: And the “Cocklebur plant response rating” value (cocklebur; [6])?
A: 0

Q: What about the “Plant response rating, Cocklebur” value (cocklebur; [7]) of the same molecule?
A: 0

Q: And the “Plant response rating, Cocklebur” value (cocklebur; [8])?
A: 0

Q: And the “Cocklebur plant response rating” value (cocklebur; [9])?
A: 0

Q: What about the “Cocklebur plant response rating” value (cocklebur; [10]) of the same molecule?
A: 0

Q: What about the “Cocklebur plant response rating” value (cocklebur; [11]) of the same molecule?
A: 2

Q: For Cc1nn(C)c(C)c1-n1c(=O)on(C(=O)N(c2ccc(F)cc2F)C(C)C)c1=O [Compound 76], which “Barnyardgrass plant response rating” value (bamyardgrass; [1]) is on record?
A: 0

Q: And the “Barnyardgrass plant response rating” value (bamyardgrass; [2])?
A: 0

Q: And the “Barnyardgrass plant response rating” value (bamyardgrass; [3])?
A: 0

Q: And the “Barnyardgrass plant response rating” value (bamyardgrass; [4])?
A: 0

Q: What about the “Sugarbeets plant response rating” value (sugar beet; [1]) of the same molecule?
A: 0

Q: What about the “Sugarbeets plant response rating” value (sugar beet; [5]) of the same molecule?
A: 2

Q: And the “Sugarbeets plant response rating” value (sugar beet; [6])?
A: 0

Q: What about the “Plant response rating, Sugarbeets” value (sugar beet; [7]) of the same molecule?
A: 0

Q: What about the “Plant response rating, Sugarbeets” value (sugar beet; [8]) of the same molecule?
A: 0

Q: What about the “Sugarbeets plant response rating” value (sugar beet; [9]) of the same molecule?
A: 0

Q: What about the “Sugarbeets plant response rating” value (sugar beet; [10]) of the same molecule?
A: 0

Q: And the “Sugarbeets plant response rating” value (sugar beet; [11])?
A: 3

Q: What about the “Redroot pigweed plant response rating” value (pigweed; [1]) of the same molecule?
A: 0

Q: And the “Redroot pigweed plant response rating” value (pigweed; [5])?
A: 0

Q: What about the “Redroot pigweed plant response rating” value (pigweed; [6]) of the same molecule?
A: 0

Q: What about the “Plant response rating, Redroot pigweed” value (pigweed; [7]) of the same molecule?
A: 0

Q: What about the “Plant response rating, Redroot pigweed” value (pigweed; [8]) of the same molecule?
A: 3

Q: And the “Redroot pigweed plant response rating” value (pigweed; [9])?
A: 8

Q: What about the “Redroot pigweed plant response rating” value (pigweed; [10]) of the same molecule?
A: 0

Q: And the “Redroot pigweed plant response rating” value (pigweed; [11])?
A: 4

Q: What about the “Cocklebur plant response rating” value (cocklebur; [1]) of the same molecule?
A: 0

Q: What about the “Cocklebur plant response rating” value (cocklebur; [5]) of the same molecule?
A: 3

Q: And the “Cocklebur plant response rating” value (cocklebur; [6])?
A: 0

Q: What about the “Plant response rating, Cocklebur” value (cocklebur; [7]) of the same molecule?
A: 0

Q: What about the “Plant response rating, Cocklebur” value (cocklebur; [8]) of the same molecule?
A: 0

Q: And the “Cocklebur plant response rating” value (cocklebur; [9])?
A: 0

Q: And the “Cocklebur plant response rating” value (cocklebur; [10])?
A: 0

Q: What about the “Cocklebur plant response rating” value (cocklebur; [11]) of the same molecule?
A: 4

Q: CN(C(=O)n1oc(=O)n(Cc2cccs2)c1=O)c1ccccc1 [Compound 83] was tested. Which “Barnyardgrass plant response rating” value (bamyardgrass; [1]) did it give?
A: 0

Q: What about the “Barnyardgrass plant response rating” value (bamyardgrass; [2]) of the same molecule?
A: 0

Q: And the “Barnyardgrass plant response rating” value (bamyardgrass; [3])?
A: 0

Q: And the “Barnyardgrass plant response rating” value (bamyardgrass; [4])?
A: 0

Q: And the “Sugarbeets plant response rating” value (sugar beet; [1])?
A: 0

Q: What about the “Sugarbeets plant response rating” value (sugar beet; [5]) of the same molecule?
A: 0

Q: And the “Sugarbeets plant response rating” value (sugar beet; [6])?
A: 0

Q: What about the “Plant response rating, Sugarbeets” value (sugar beet; [7]) of the same molecule?
A: 0

Q: And the “Plant response rating, Sugarbeets” value (sugar beet; [8])?
A: 0

Q: And the “Sugarbeets plant response rating” value (sugar beet; [9])?
A: 0

Q: And the “Sugarbeets plant response rating” value (sugar beet; [10])?
A: 0

Q: What about the “Sugarbeets plant response rating” value (sugar beet; [11]) of the same molecule?
A: 0

Q: What about the “Redroot pigweed plant response rating” value (pigweed; [1]) of the same molecule?
A: 0

Q: And the “Redroot pigweed plant response rating” value (pigweed; [5])?
A: 0

Q: What about the “Redroot pigweed plant response rating” value (pigweed; [6]) of the same molecule?
A: 0

Q: What about the “Plant response rating, Redroot pigweed” value (pigweed; [7]) of the same molecule?
A: 0

Q: What about the “Plant response rating, Redroot pigweed” value (pigweed; [8]) of the same molecule?
A: 0

Q: And the “Redroot pigweed plant response rating” value (pigweed; [9])?
A: 0

Q: What about the “Redroot pigweed plant response rating” value (pigweed; [10]) of the same molecule?
A: 0

Q: What about the “Redroot pigweed plant response rating” value (pigweed; [11]) of the same molecule?
A: 0

Q: And the “Cocklebur plant response rating” value (cocklebur; [1])?
A: 0

Q: And the “Cocklebur plant response rating” value (cocklebur; [5])?
A: 1

Q: What about the “Cocklebur plant response rating” value (cocklebur; [6]) of the same molecule?
A: 0

Q: What about the “Plant response rating, Cocklebur” value (cocklebur; [7]) of the same molecule?
A: 0

Q: What about the “Plant response rating, Cocklebur” value (cocklebur; [8]) of the same molecule?
A: 0

Q: What about the “Cocklebur plant response rating” value (cocklebur; [9]) of the same molecule?
A: 0

Q: And the “Cocklebur plant response rating” value (cocklebur; [10])?
A: 0

Q: What about the “Cocklebur plant response rating” value (cocklebur; [11]) of the same molecule?
A: 1

Q: Which results are given for Cc1ccccc1Cn1c(=O)on(C(=O)N(C)c2ccccc2)c1=O [Compound 85]?
A: Barnyardgrass plant response rating (bamyardgrass; [1]): 0; Barnyardgrass plant response rating (bamyardgrass; [2]): 0; Barnyardgrass plant response rating (bamyardgrass; [3]): 0; Barnyardgrass plant response rating (bamyardgrass; [4]): 0; Sugarbeets plant response rating (sugar beet; [1]): 0; Sugarbeets plant response rating (sugar beet; [5]): 0; Sugarbeets plant response rating (sugar beet; [6]): 0; Plant response rating, Sugarbeets (sugar beet; [7]): 0; Plant response rating, Sugarbeets (sugar beet; [8]): 0; Sugarbeets plant response rating (sugar beet; [9]): 0; Sugarbeets plant response rating (sugar beet; [10]): 0; Sugarbeets plant response rating (sugar beet; [11]): 0; Redroot pigweed plant response rating (pigweed; [1]): 0; Redroot pigweed plant response rating (pigweed; [5]): 0; Redroot pigweed plant response rating (pigweed; [6]): 0; Plant response rating, Redroot pigweed (pigweed; [7]): 0; Plant response rating, Redroot pigweed (pigweed; [8]): 0; Redroot pigweed plant response rating (pigweed; [9]): 0; Redroot pigweed plant response rating (pigweed; [10]): 0; Redroot pigweed plant response rating (pigweed; [11]): 0; Cocklebur plant response rating (cocklebur; [1]): 0; Cocklebur plant response rating (cocklebur; [5]): 0; Cocklebur plant response rating (cocklebur; [6]): 0; Plant response rating, Cocklebur (cocklebur; [7]): 0; Plant response rating, Cocklebur (cocklebur; [8]): 0; Cocklebur plant response rating (cocklebur; [9]): 0; Cocklebur plant response rating (cocklebur; [10]): 0; Cocklebur plant response rating (cocklebur; [11]): 0

— patent US6737383B1, “Herbicidal oxadiazolidines” (priority 1999, dated 2004)
